Earlier results, collected in patent publication US20100247645A1 (priority 2007, published 2010).

Conditions: class 3 = high solubility, low permeability

## COCCCOc1cc(C[C@@H](C[C@H](N)[C@@H](O)C[C@H](C(=O)NCC(C)(C)C(N)=O)C(C)C)C(C)C)ccc1OC [Aliskiren, 2(S),4(S),5(S),7(S)—N-(3-amino-2,2-dimethyl-3-oxopropyl)-2,7-di(1-methylethyl)-4-hydroxy-5-amino-8-[4-methoxy-3-(3-methoxy-propoxy)phenyl]-octanamide]
  BCS (biopharmaceutical classification system) class: class 3
